Consider four molecules from PMC4058377 (Neurochemistry international, 2014).

In series [1] the target is T1, X7C DAT (Homo sapiens, UniProt Q01959, C135A/C306A/C319M/C342M/C581L/C90A).
T1 sequence (Q01959 23-620 C90A/C135A/C306A/C319M/C342M/C581L): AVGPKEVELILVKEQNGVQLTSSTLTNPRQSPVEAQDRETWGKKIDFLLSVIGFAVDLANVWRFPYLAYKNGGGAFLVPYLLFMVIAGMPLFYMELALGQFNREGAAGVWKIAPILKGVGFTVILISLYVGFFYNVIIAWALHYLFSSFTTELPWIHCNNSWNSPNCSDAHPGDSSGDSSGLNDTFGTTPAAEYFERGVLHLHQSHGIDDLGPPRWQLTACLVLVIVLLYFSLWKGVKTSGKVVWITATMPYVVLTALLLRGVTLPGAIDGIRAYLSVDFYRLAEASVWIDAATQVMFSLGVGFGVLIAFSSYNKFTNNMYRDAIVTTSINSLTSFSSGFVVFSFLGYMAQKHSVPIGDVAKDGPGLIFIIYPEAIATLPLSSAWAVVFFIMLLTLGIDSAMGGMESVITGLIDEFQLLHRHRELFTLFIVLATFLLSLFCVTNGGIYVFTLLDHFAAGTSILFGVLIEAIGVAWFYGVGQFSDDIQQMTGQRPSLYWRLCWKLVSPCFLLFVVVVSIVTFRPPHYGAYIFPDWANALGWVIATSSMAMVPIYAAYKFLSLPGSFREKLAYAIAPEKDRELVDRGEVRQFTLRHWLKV
Kind of series: [3H]MFZ 2-12 binding, membranes.

Series [2] addresses T2, all the remaining mutants as well as the background construct X7C (Homo sapiens, UniProt Q01959, C135A/C306A/C319M/C342M/C581L/C90A).
T2 sequence (Q01959 23-620 C90A/C135A/C306A/C319M/C342M/C581L): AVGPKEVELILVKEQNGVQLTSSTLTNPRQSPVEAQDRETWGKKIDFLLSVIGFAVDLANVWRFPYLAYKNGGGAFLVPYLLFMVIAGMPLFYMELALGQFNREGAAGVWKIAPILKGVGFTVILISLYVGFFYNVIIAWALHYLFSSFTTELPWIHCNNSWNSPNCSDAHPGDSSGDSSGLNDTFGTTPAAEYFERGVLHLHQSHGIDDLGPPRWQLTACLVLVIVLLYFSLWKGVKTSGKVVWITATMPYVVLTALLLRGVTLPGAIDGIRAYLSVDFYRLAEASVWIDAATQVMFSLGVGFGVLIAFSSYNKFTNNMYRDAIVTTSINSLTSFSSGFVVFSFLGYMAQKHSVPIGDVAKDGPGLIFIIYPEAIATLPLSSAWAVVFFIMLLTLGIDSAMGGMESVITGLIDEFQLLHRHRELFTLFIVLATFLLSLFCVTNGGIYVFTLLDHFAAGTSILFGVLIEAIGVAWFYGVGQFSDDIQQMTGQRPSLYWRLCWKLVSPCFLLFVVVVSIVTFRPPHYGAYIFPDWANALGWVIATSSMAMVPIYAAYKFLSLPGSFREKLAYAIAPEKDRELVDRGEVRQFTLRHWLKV
The series can be described thus: Effect of Zn2+ on [3H]tyramine uptake. The class given is cell-based. The conditions noted are these: 10 μM Zn^2+, 15 min prior to and during uptake.

The test system of the next series is DAT Tyr335 to alanine. The conditions noted are these: ref Loland et al., 2002; cited from earlier work.
A further series concerns WT DAT. The conditions noted are these: ref Loland et al., 1999, Norregaard et al., 1998; cited from earlier work.
For series [3], the target named is T1, X7C DAT.
Substrate in series [4]: NCCc1ccc(O)cc1
The series can be described thus: cells, lysate or membranes. The note with it: other: X7C; pH 7.4; 37.0 °C.

Turning to `COC(=O)[C@H]1[C@@H](c2ccc(Cl)c(Cl)c2)C[C@@H]2CC[C@H]1N2C` [MFZ 2-12], the “MFZ 2-12 Bmax ± SEM” value on X7C DAT [1] turned out to be 5 ± 2 pmol/mg. At X7C DAT [1] (read-out: MFZ 2-12 KD ± SEM), the Kd is 2.2 ± 0.5 nM.

With `[Cl-].[Cl-].[Zn+2]` [Zn^2+, ZnCl2], in series [2], the “effect of Zn^2+ on tyramine uptake” value is listed as “inhibited uptake”. The “effect of Zn^2+ on low uptake capacity” value with DAT Tyr335 to alanine was “substantially restored”. The “effect of Zn^2+ on dopamine uptake” value with WT DAT is given as “inhibits”.

`NCCc1ccc(O)cc1` [tyramine]: the “Vmax for tyramine uptake” value at X7C DAT [3] worked out at 29 ±8.

B1: X7C DAT (Homo sapiens; C135A/C306A/C319M/C342M/C581L/C90A) (protein)
chain: AVGPKEVELILVKEQNGVQLTSSTLTNPRQSPVEAQDRETWGKKIDFLLSVIGFAVDLANVWRFPYLAYKNGGGAFLVPYLLFMVIAGMPLFYMELALGQFNREGAAGVWKIAPILKGVGFTVILISLYVGFFYNVIIAWALHYLFSSFTTELPWIHCNNSWNSPNCSDAHPGDSSGDSSGLNDTFGTTPAAEYFERGVLHLHQSHGIDDLGPPRWQLTACLVLVIVLLYFSLWKGVKTSGKVVWITATMPYVVLTALLLRGVTLPGAIDGIRAYLSVDFYRLAEASVWIDAATQVMFSLGVGFGVLIAFSSYNKFTNNMYRDAIVTTSINSLTSFSSGFVVFSFLGYMAQKHSVPIGDVAKDGPGLIFIIYPEAIATLPLSSAWAVVFFIMLLTLGIDSAMGGMESVITGLIDEFQLLHRHRELFTLFIVLATFLLSLFCVTNGGIYVFTLLDHFAAGTSILFGVLIEAIGVAWFYGVGQFSDDIQQMTGQRPSLYWRLCWKLVSPCFLLFVVVVSIVTFRPPHYGAYIFPDWANALGWVIATSSMAMVPIYAAYKFLSLPGSFREKLAYAIAPEKDRELVDRGEVRQFTLRHWLKV
Regarding B1, the Km in series [4] was found to be 2.6 µM.

The Kd is a measure of binding affinity in units of concentration. For orientation: Km means the substrate concentration at which the rate is half of its maximum.
